Measurements as given in patent US10590081B2, “Guanidine compounds and use thereof” (ImmunoMet Therapeutics Inc., priority 2015, dated 2020).
Where a name gives a salt, the structure may show the parent alone. Read-outs that look alike come from different tables or passages of the source.

How the values were obtained:
A549 cells = test: Test for inhibition of OCR and enhancement of ECAR (XF Analyzer); format: cell-based; conditions: 24 hrs treatment, oxygen consumption rate
Description: Measurement of Mitochondrial Complex I Inhibition
The electron transfer complex in mitochondria is composed of 5 complexes. The complex I accept electrons from NADH produced from glycolysis and TCA cycle and the electrons move to complex […] and the electron is finally transferred to O2 and water molecule is generated. During the electron transfer, proton gradient is generated and the chemical gradient is a driving source to synthesize ATP at complex V. The mitochondrial inhibition of complex I indirectly assessed by measuring the oxygen consumption rate (OCR) at complex IV. […] The solution outside of cells becomes acidic (lower pH) as lactate is transported to outside of cells. OCR and Extracellular acidification rate (ECAR) are determined by XF Analyzer (Seahorse Biosciences).
A549 cells were purchased from American Type Tissue Culture Collection (CCL-185™) and cultured in RPMI 1640 supplied with 10% fetal bovine serum (FBS) and antibiotic-antimycotic (Lifetech, CA). A549 cells were separated with 0.5% Trypsin-EDTA and 3,000 cells were plated on 1 mg/ml poly-D-lysine (Sigma, P6407) coated XF 96 well […]. A549 cells were allowed to adhere to the wells for 24 hours under the condition of temperature, 37° C. and 5% CO2. The sensor cartridge of XF Analyzer was soaked in 200 μl of Calibrant solution (Seahorse, MA) in a clear 96-well plate at 37° C. for 24 hours. The compounds of the present invention were diluted with RPMI 1640 without FBS, transferred to A549 cells on XF 96 well plate, and incubated further for 23 hours at 37° C. and 5% CO2. After incubation, the compound solution was exchanged with pre-warmed and pH adjusted (pH7.4) XF assay media (Seahorse) supplied with 15 mM D-glucose (Sigma), 15 mM sodium pyruvate (Lifetechnologies, CA) and 4 mM L-glutamine (Lifetechnologies, CA). The compounds of present invention were prepared in XF Assay media and added to the assay plate. The assay plate was equilibrated in XF Analyzer for 1 hour, and the reading were started by sensor cartridge. The cytotoxicity assay was followed using Cyquant (Lifetechnologies, CA) in order to calibrate the inhibition with cytotoxicity of compounds. The concentrations of the compounds were tested at 0, 0.5, 1, 5, 10 and 20 μM and IC50 value was obtained from the inhibited values. That is, from OCR inhibition values at each concentration of the compound, IC50 was calculated according to Prism's dose response curve fitting.
In Table 1, the levels of OCR IC50 are evaluated by the following.
According to the test results of the compounds, the compounds were classified into A, B and C.

SK-MEL-28 cells = test: Cytotoxicity in low glucose condition (MTT assay); format: cell-based; conditions: 0.75 mM glucose, 72 hours treatment, read-out: SK-MEL-280.75 mM glucose cell viability (IC50 μM)
Description: Cytotoxicity Assay in Low Glucose Condition
The inhibition of oxidative phosphorylation (OXPHOS) is not cytotoxic to cells in normal glucose condition, because it is postulated that normal cells have compensatory mechanism under energy stress conditions such as low glucose. However OXPHOS inhibitors show cytotoxic effect on cells in the glucose deprived condition (BirsoyK, 2014). The glucose deprived condition is observed in tumor microenvironment potentially due to poor angiogenesis. Therefore the OXPHOS inhibitors may show anti-cancer effect on cancer cells in low glucose condition that may depict tumor microenvironment.
The compounds of the present invention were evaluated their cytotoxicity in SK-MEL-28, melanoma with 0.75 mM glucose supplement. The cytotoxic effect is compared with the cytotoxicity caused by phenformin. The cytotoxicity in low glucose condition is correlated with inhibition of oxygen consumption in mitochondria.
SK-MEL-28 (HTB-72) is a melanoma cell line obtained from ATCC (MA) and cultured in RPMI 1640 media (Lifetechnologies, CA) with supplement of 10% FBS and antibiotic-antimycotic (Lifetechnologies, CA). RPMI 1640 (−Glucose) was used to prepare low glucose media and 0.75 mM glucose was supplied with D-(+)-glucose solution from Sigma. SK-MEL-28 cells were separated from culture plate using 0.5% trypsin-EDTA and 1,250 cells were plated in 96-well plate with low glucose media. After incubation at 37° C. for 24 hour, 5% CO2, the cells were treated with the compounds of present invention in FBS-free media for 72 hours. The cytotoxicity was measured by the MTT (AMRESCO, OH) assay. NADH-dependent cellular oxidoreductase reduces MTT to its insoluble […] with purple color. The enzyme depends on cell number or energy state of cells. 10 μl of 5 mg/ml MTT solution was added to each well of the assay plate and skip the well for blank. The plate was incubated at 37° C. and 5% CO2 for 2 hours. The MTT solution was removed from each well and 100 μl of DMSO was added. The plate was read by VICTOR X3 Multilabel Counter at the wavelength of 550 nm. In Table 2, the levels of IC50 are evaluated by the following criteria.
According to the concentration of compound for killing the half of cell populations (the levels of IC50), the compounds were classified into A, B and C, when the compounds were treated on SK-MEL-28 cells at 0.75 mM glucose.

| Molecule | IC50 (A549 cells; Homo sapiens) [µM] | IC50 (A549 cells) [µM] | IC50 (SK-MEL-28 cells; Homo sapiens, SK-MEL-28, 72 h) [µM] | IC50 (SK-MEL-28 cells) [µM] |
| --- | --- | --- | --- | --- |
| N=C(NC(=N)N1CCC(F)(F)C1)Nc1ccc(C(F)(F)F)cc1 [Example 30, N—(N-(4-(trifluoromethyl)phenyl)carbamimidoyl)-3,3-difluoropyrrolidine-1-carboximidamide acetate] | 2 to 4 |  | 6 to 15 |  |
| N=C(NC(=N)N1CCC(F)(F)C1)Nc1ccc(I)c(Cl)c1 [Example 31, N—(N-(3-chloro-4-iodophenyl)carbamimidoyl)-3,3-difluoropyrrolidine-1-carboximidamide acetate] | 2 to 4 |  | 6 to 15 |  |
| N=C(NC(=N)N1CCC(F)(F)C1)Nc1ccc(OC(F)(F)F)c(Cl)c1 [Example 38, N—(N-(3-chloro-4-(trifluoromethoxy)phenyl)carbamimidoyl)-3,3-difluoropyrrolidine-1-carboximidamide acetate] | 2 to 4 |  | 6 to 15 |  |

The next lines start with results.

| IC50 (A549 cells; Homo sapiens) [µM] | IC50 (A549 cells) [µM] | Molecule | IC50 (SK-MEL-28 cells; Homo sapiens, SK-MEL-28, 72 h) [µM] | IC50 (SK-MEL-28 cells) [µM] |
| --- | --- | --- | --- | --- |
| > 4 |  | N=C(NCc1ccc(Cl)c(Cl)c1)NC(=N)N1CCC(F)(F)CC1 [Example 42, N—(N-(3,4-dichlorobenzyl)carbamimidoyl)-4,4-difluoropiperidine-1-carboximidamide hydrochloride] | 6 to 15 |  |
|  | 2 to 4 | N—(N-(4-(trifluoromethythio)phenyl)carbamimidoyl)-3,3-difluoropyrrolidine-1-carboximidamide acetate [Example 32] |  | < 6 |
